Reference: patent US11541083B2, “Methods and probiotic compositions for the treatment of bone disorders” (Research Development Foundation, priority 2018, dated 2023)

System: ovariectomized mice
Test: 3-point bending biomechanical test on femur of ovariectomized mice after single microbe transplantation
Type: in vivo
Method: Animals: All C57BL/6J mice were purchased from Janvier Labs, and kept in a specific pathogen-free (SPF) facility in individually ventilated cages. All the mice were in a 12 h day/night cycle and fed a standard chow diet (16.2 MJ/kg Gross Energy; 9 kJ % Fat, 33 kJ % Protein, 58 kJ % Carbohydrates, V1534-727, Ssniff, Germany). All the mice were either male and entered the experiment at 8 weeks of age, or female starting at 16 weeks of age (for the ovariectomy experiment). Acclimatized animals were allocated into groups based on their body weight to ensure equal starting points. Warmth exposure was done at 34° C. in a light and humidity-controlled climatic chamber (TSE, Germany) in SPF conditions using individually ventilated cages All mice were sacrificed after 5 h fasting. Bone samples for CT-scan and biomecanics analysis were stored in a humid package at −20° C. All animal experiments were approved by the Swiss federal and Geneva cantonal authorities for animal experimentation (Office Vétérinaire Fédéral and Commission Cantonale pour les Expériences sur les animaux de Genève).
Ovariectomy: Mice were anesthetised with Xylazin/Ketamin (injection of 120 μl of a mixture of 120 mg/kg ketamine and 16 mg/kg xylazine) and shaved below the ribs on the back side. Betadine was applied to the area for appropriate disinfection. After a 1-2 cm incision through the skin and the muscle layer just below the ribs, the ovary was localized, the fallopian tube ligated with dissolving suture and the ovary removed. […]
Biomechanical analysis of the bones: We used a 3-points bending test to measure biomechanical parameters of the bone. […] Mechanical resistance to failure (displacement and load applied) was measured using a servo-controlled electromechanical system (Instron 1114, Instron corp., High Wycombe, UK) with actuator displaced at 2 mm/minute. Ultimate force (maximal load, measured in Newtons [N]), Yield point (N), stiffness (elastic energy, N/mm), and energy to fracture (surface under the curve of the plastic region, N*mm) were calculated. Young's modulus (MPa) was determined.

[1] = gavage every second day for 2 month, starting 3 days post-surgery

With Lactobacillus reuteri the “increased displacement (post-yield displacement), femur” value [1] was “reduce or prevent”, the “reduction in ultimate force (ultimate strength), femur” value [1] was “reduce or prevent the reduction” and the “bone fragility induced by ovariectomy” value (legend of FIGS. 7A-C, overall statement) was “can reduce or prevent”.
